Measurements taken from patent US20090088376A1, “DENDRIMER BASED COMPOSITIONS AND METHODS OF USING THE SAME” (priority 2007, published 2009).

Legend:
[1] = test system: KB cells; assay: Inhibition of cell growth (XTT assay / total cell protein); assay type: cell-based, human
Protocol: Cell culture and treatment.
Evaluation of dendrimer cytotoxicity. Cell growth was determined by assay of the total protein in lysates of treated cells using a bicinchoninic acid reagent (PIERCE, and by XTT assay, using a kit from Roche.
Because the binding of the conjugate to KB cells reaches maximal uptake within 1 h (Quintana et al, 2002. Pharmaceutical Research 19: 1310-1316.), the effect of the G5-FI-FA-MTX on cell growth was initially tested by pre-incubation of cells with the conjugate for 1 h, followed by incubation in a drug-free medium for 5 d. […] When the cells were pre-incubated with dendrimers for 4 h, there was a modest decrease of about 10% in cell growth as determined by XTT assay. The cytotoxicity measurements were therefore done by incubation with the dendrimer for a minimum of 24 h, a pre-incubation time period shown to induce significant cytotoxicity.
Time course and dose dependent inhibition of cell growth. Previous studies have shown that MTX-induced cytotoxicity is detectable in vitro only if the medium is completely deprived of FA (See, e.g., Sobrero & Bertino, Int. J. Cell Cloning 4, 51 (1986)). The effect of the trifunctional dendrimers on cell growth was tested in cells incubated in a FA-deficient medium. Cells were treated with 300 nM conjugates (equivalent of 1500 nM MTX) or 1500 nM free MTX for 1-4 days, and cell proliferation was determined by estimation of cellular protein content. Cells were treated for 2 days with different concentrations of the conjugates or free MTX (the conjugate concentration is given as MTX equivalents, with 5 MTX per dendrimer molecule). KB cells which express high and low FAR were incubated with 30 nM of the dendrimers for 1 hr at 37° C., rinsed, and the fluorescence of cells was determined by flow cytometric analysis (See. e.g., FIG. 21, left panel). Pre-incubation with 50 µM free FA for 30 min totally prevents cellular binding and uptake of the polymer conjugates (See. e.g., FIG. 21, left panel).
The inhibition of cell growth induced by the conjugates was also tested by XTT assay which is based on the conversion of XTT to formazan by the active mitochondria of live cells (See, e.g., Roehm et al, J Immunol Methods 142, 257 (1991)).

[2] = test system: s.c. human KB xenografts; assay: Targeted drug delivery: tumor growth and survival; assay type: in vivo, SCID mice; conditions: for effect on tumor growth: first trial
Protocol: Tumor cell line. The KB human cell line, which overexpresses the folate receptor (See, e.g., Turek et al, J Cell Sci 106, 423 (1993)), was purchased from the American Type Tissue Collection (Manassas, Va.) and maintained in vitro at 37° C., 5% CO2 in folate-deficient RPMI 1640 supplemented with penicillin (100 units/mL), streptomycin (100 μg/mL), and 10% heat-inactivated fetal bovine serum. Before injection in the mice, the cells were harvested with trypsin-EDTA solution, washed, and resuspended in PBS. The cell suspension (5×10^6 cells in 0.2 mL) was injected s.c. into one flank of each mouse using a 30-gauge needle. In the biodistribution studies, the tumors were allowed to grow for 2 weeks until reaching ˜0.9 cm^3 in volume. The formula chosen to compute tumor volume was for a standard volume of an ellipsoid, where V=4/3π(½ length×½ width×½ depth). With an assumption that width equals depth and […], the formula used was V=½×length×width^2. Targeted drug delivery using conjugate injections was started on the fourth day after implantation of the KB cells.
Delivery of targeted nanoparticle therapeutic.
Statistical methods. Means, SD, and SE of the data were calculated. Differences between the experimental groups and the control groups were tested using Student's-Newman-Keuls' test and Ps<0.05 were considered significant.
Targeted drug delivery to tumor cells through the folate receptor. The efficacy of different doses of conjugates was tested on SCID CB-17 mice bearing s.c. human KB xenografts and was compared with equivalent and higher doses of free methotrexate. Mice were maintained on the folic acid-deficient diet for 3 weeks before injection of the KB tumor cells to achieve circulating levels of folic acid that approach those in human serum and to prevent down-regulation of folate receptors on tumor xenografts (See, Mathias et al., J Nucl Med 29, 1579 (1998)). Six groups of SCID mice with five mice in each group were injected s.c. on one flank with 5×10^6 KB cells in 0.2 mL PBS suspension. The highest total dose of G5-FI-FA-MTX therapeutic used equals 55.0 mg/kg and is equivalent to a 5.0 mg/kg total cumulative dose of free methotrexate (FIG. 29). The therapeutic dose of the conjugate was compared with three cumulative doses of free methotrexate equivalent to 33.3, 21.7, and 5.0 mg/kg accumulated in 10 to 15 injections based on mouse survival. Saline and the conjugate without methotrexate (G5-FT-FA) were used as controls.

[3] = test system: SCC15 cells; assay: XTT cell proliferation assay; assay type: cell-based, human; conditions: methotrexate 100 nM, G5-FI-EGF 100 nM, 3 days
Protocol: XTT assay. For cytotoxicity experiments, cells (2500 cells/well) were seeded in 96-well microtiter plates in DMEM containing 10% FCS. The cells were treated either with 100 nM each of the conjugates for 72 h. A calorimetric XTT assay, Roche Molecular Biochemicals (Indianapolis, Ind.) was performed following the vendor's protocol. After incubation with an XTT labeling mixture, microtiter plates were read on an ELISA reader (SYNERGY HT, BIOTEK) at 492 nm with the reference wavelength at 690 nm. Vehicle-treated cells were assigned a value of 100%.

[4] = mouse, in vivo
Protocol: (§1) Twice weekly, SCID mice with s.c. KB xenografts, starting on day 4 after tumor implantation, received via the tail vein an injection of either targeted or nontargeted conjugate containing methotrexate, a conjugate without methotrexate, free methotrexate, or saline as a control. The compounds were delivered in a 0.2 mL volume of saline per 20 g of mouse. The single dose of methotrexate delivered each time equaled 0.33 mg/kg. The higher doses of 1.67 and 3.33 mg/kg free methotrexate were also tested. The conjugates were delivered at equimolar concentration of methotrexate calculated based on the number of methotrexate molecules present in a nanoparticle. The conjugate without methotrexate was delivered at equimolar concentration of dendrimer. In the initial trial, six groups of mice with five mice in each group received up to 15 injections. In the follow-up trial, mice received up to 28 injections dependent on their survival. The body weights of the mice were monitored throughout the experiment as an indication of adverse effects of the drug. Histopathology of multiple organs was done at the termination of each trial and each time mouse had to be euthanized due to toxic effects or tumor burden. Tissues from lung, heart, liver, pancreas, spleen, kidney, and tumor were analyzed.
(§2) At each time point, a gross examination and histopathology of the liver, spleen, kidney, lung, and heart were done.

[5] = Toxicity of dendrimer conjugates and free methotrexate (body weight, histopathology)
Protocol: as §1, §2

SMILES | inhibition of cell growth ([1]; XTT assay, 1, 2 or 3 days) | growth inhibition of free MTX compared with conjugate ([1]; equimolar MTX, below 1 μM) | effect on tumor growth ([2]; cumulative 33.3 and 21.7 mg/kg) | effect on tumor growth ([2]; dose equivalent to 5.0 mg/kg cumulative methotrexate (or equimolar dendrimer)) | day of trial by which all mice died ([2]; second 99-day trial) | survivors at the termination of the trial ([2]; second 99-day trial) | inhibition of cell growth in G5-FI-EGF-treated cells [3] | histopathology of the liver [4] | day of trial by which doses became lethal ([5]; cumulative doses 33.3 and 21.7 mg/kg) | toxicity ([5]; total accumulated dose equivalent to 5.0 mg/kg free methotrexate) | reversal by free FA of growth-arrest caused by MTX ([1]; 150 nM FA, 150 nM MTX, 24 h then 6 d fresh medium, total cell protein) | increase of cell growth above control cells by excess free FA ([1]; 50 μM FA with MTX or G5-FITC-FA-MTX 24 h, then 5 days, XTT)
CN(Cc1cnc2nc(N)nc(N)c2n1)c1ccc(C(=O)N[C@@H](CCC(=O)O)C(=O)O)cc1 [MTX, methotrexate] | time-dependent cytotoxicity | higher than with the equimolar concentrations of MTX in the G5-FITC-FA-MTX | affecting tumor growth | no effect on tumor growth | ≤ 66 days | no mice surviving | inhibited cell growth in the G5-FI-EGF-treated cells to a greater extent than its inhibition of control cells | advanced liver lesions, collections of inflammatory cells, and periportal inflammation | 32 to 36 days | nor free methotrexate at the same dose were toxic |  | 
Nc1nc2ncc(CNc3ccc(C(=O)N[C@@H](CCC(=O)O)C(=O)O)cc3)nc2c(=O)[nH]1 [FA, folic acid] |  |  |  |  |  |  |  |  |  |  | almost completely reversed | 20%
